What all share (type): in vivo, hairless guinea pig
A short description of series [1]: transdermal drug absorption from gel formulation with microprojection systems, extrapolated from urinary excretion. The method, then:
(§1) Pretreatment and integrated systems described In U.S. application Ser. Nos. 10/971,430 and 10/970,901 were employed for the following analysis. The microprojection designs with retention features (i.e., 30a-30c) were used with the integrated system while the microprojection designs without retention features (i.e., 30d-30g) were used with the pretreatment system.
(§2) Following application of the systems, the gel formulation was left in contact with the skin for up to 24 h.

Series [2] can be described thus: skin site irritation and bleeding after 24 h system wearing (erythema+edema score, photographs). The protocol:
as §1, §2
Referring now to FIG. 4, there is shown a series of photographs of the skin site following 24 h system wearing time.
An additional experiment using the pretreatment system was performed to compare microprojections lengths of 120 and 145 μm.
Referring now to FIG. 6, there is shown a graph illustrating the combined erythema+edema score obtained with the various microprojection designs. […] The results thus confirm that lower irritation is observed with shorter microprojections. Further, the skin site was not distinguishable from control sites (24 h wearing with the same formulation, no microprojection treatment).

The nature of series [3]: urinary excretion of intact RWJ-445167 following IV injection (LC-MS). The following applies: following IV injection of 0.5 to 3 mg RWJ-445167.

Regarding `Cc1cccc(S(=O)(=O)Nc2ccc(C)n(CC(=O)NCCON=C(N)N)c2=O)c1` [RWJ-445167], the enhancement factor entry in series [1] (120 μm microprojection array pretreatment vs no microprojection treatment) is reported as “at least 10000 fold”. In series [1] (120 μm microprojections (FIG. 8)), the duration of delivery result is recorded as “sustained delivery for 24 h”. Besides, the drug absorbed entry in series [1] (following pretreatment with a 120 μm microprojection array, 24 h wearing, 20 wt % gel formulation) was “about 2.5 mg”. Moreover, in series [1] (formulation applied to the skin for 24 h in the absence of treatment with a microprojection array, detection limit), the drug absorption is listed as less than 0.2 μg absorbed per 24 h. The “combined erythema+edema score (irritation)” value in series [2] (120 μm microprojections (FIG. 6), 24 h wearing) is reported as “absence of irritation”. In addition, the “bleeding / erythema at skin site” value in series [2] (pretreatment system, 120 μm microprojection length (FIG. 5)) was “no bleeding or erythema”. In addition, in series [2] (pretreatment system, 145 μm microprojection length (FIG. 5)), the “bleeding at skin site” value was “some pinpoint bleeding”. Also, the “dose found excreted intact in urine” value in series [3] is 7.5 % of the dose.

Values taken from patent US20060204562A1, “Microprojection arrays with improved biocompatibility” (priority 2005, published 2006).
